Source: PubChem BioAssay (NCI)
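These data come from cells grown in 96-well plates and exposed to compound for 48 hours at five concentrations. Definition used: TGI = concentration required for complete inhibition of growth.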

What was measured:
Test in all cases: NCI anticancer screen, dose series, 48 h
[1] = system: U251 CNS
[2] = system: DLD-1 colon
[3] = system: HCC-2998 colon
[4] = system: 786-0 renal
[5] = system: SF-539 CNS
[6] = system: MOLT-4 leukemia
[7] = system: IGROV1 ovarian
[8] = system: KM12 colon
[9] = system: OVCAR-3 ovarian
[10] = system: HOP-62 NSCLC
[11] = system: OVCAR-8 ovarian
[12] = system: NCI-H522 lung
[13] = system: SF-268 CNS
[14] = system: UACC-62 melanoma
[15] = system: A549 NSCLC
[16] = system: SK-MEL-28 melanoma
[17] = system: M19-MEL melanoma
[18] = system: A498 renal
[19] = system: NCI-H23 lung
[20] = system: ACHN renal
[21] = system: SW-620 colon
[22] = system: DMS 114 small cell lung
[23] = system: DMS 273 small cell lung
[24] = system: XF 498 CNS
[25] = system: SK-OV-3 ovarian
[26] = system: UACC-257 melanoma
[27] = system: SNB-78 CNS
[28] = system: HCT-116 colon
[29] = system: SNB-19 CNS
[30] = system: CAKI-1 renal
[31] = system: TK-10 renal
[32] = system: KM20L2 colon
[33] = system: HCT-15 colon
[34] = system: OVCAR-5 ovarian
[35] = system: LXFL 529 NSCLC
[36] = system: SK-MEL-5 melanoma
[37] = system: M14 melanoma
[38] = system: SNB-75 CNS
[39] = system: MALME-3M melanoma
[40] = system: UO-31 renal
[41] = system: HL-60(TB) leukemia
[42] = system: SK-MEL-2 melanoma
[43] = system: OVCAR-4 ovarian
[44] = system: EKVX NSCLC
[45] = system: COLO 205 colon
[46] = system: SN12C renal
[47] = system: CCRF-CEM leukemia
[48] = system: K-562 leukemia
[49] = system: SR leukemia
[50] = system: NCI-H460 lung
[51] = system: LOX IMVI melanoma
[52] = system: RPMI-8226 leukemia
[53] = system: NCI-H226 lung
[54] = system: HT29 colon
[55] = system: SF-295 CNS
[56] = system: RXF 393 renal
[57] = system: HOP-92 NSCLC

N#Cc1c2nc3ccccc3nc2n2ccccc12
TGI [1]: > 100 µM | TGI [2]: > 100 µM | TGI [3]: > 100 µM | TGI [4]: > 100 µM | TGI [5]: > 100 µM | TGI [6]: > 100 µM | TGI [7]: > 100 µM | TGI [8]: > 100 µM | TGI [9]: > 100 µM | TGI [10]: > 100 µM | TGI [11]: > 100 µM | TGI [12]: > 100 µM | TGI [13]: > 100 µM | TGI [14]: > 100 µM | TGI [15]: > 100 µM | TGI [16]: > 100 µM | TGI [17]: > 100 µM | TGI [18]: > 100 µM | TGI [19]: > 100 µM | TGI [20]: > 100 µM | TGI [21]: > 100 µM | TGI [22]: > 100 µM | TGI [23]: > 100 µM | TGI [24]: > 100 µM | TGI [25]: > 100 µM | TGI [26]: > 100 µM | TGI [27]: > 100 µM | TGI [28]: > 100 µM | TGI [29]: > 100 µM | TGI [30]: > 100 µM | TGI [31]: > 100 µM | TGI [32]: > 100 µM | TGI [33]: > 100 µM | TGI [34]: > 100 µM | TGI [35]: > 100 µM | TGI [36]: > 100 µM | TGI [37]: > 100 µM | TGI [38]: > 100 µM | TGI [39]: > 100 µM | TGI [40]: > 100 µM | TGI [41]: > 100 µM | TGI [42]: > 100 µM | TGI [43]: > 100 µM | TGI [44]: > 100 µM | TGI [45]: > 100 µM | TGI [46]: > 100 µM | TGI [47]: > 100 µM | TGI [48]: > 100 µM | TGI [49]: > 100 µM | TGI [50]: > 100 µM | TGI [51]: > 100 µM | TGI [52]: > 100 µM

COC(=O)c1nn(-c2ccccc2)c(=O)cc1N=[N+]=[N-]
TGI [1]: > 100 µM | TGI [3]: > 100 µM | TGI [53]: > 100 µM | TGI [4]: > 100 µM | TGI [5]: > 100 µM | TGI [6]: > 100 µM | TGI [7]: > 100 µM | TGI [8]: > 100 µM | TGI [9]: > 100 µM | TGI [10]: > 100 µM | TGI [11]: > 100 µM | TGI [12]: > 100 µM | TGI [13]: > 100 µM | TGI [14]: > 100 µM | TGI [15]: > 100 µM | TGI [54]: > 100 µM | TGI [16]: > 100 µM | TGI [17]: > 100 µM | TGI [18]: > 100 µM | TGI [19]: > 100 µM | TGI [20]: > 100 µM | TGI [21]: > 100 µM | TGI [22]: > 100 µM | TGI [55]: > 100 µM | TGI [23]: > 100 µM | TGI [24]: > 100 µM | TGI [25]: > 100 µM | TGI [26]: > 100 µM | TGI [27]: > 100 µM | TGI [28]: > 100 µM | TGI [29]: > 100 µM | TGI [30]: > 100 µM | TGI [31]: > 100 µM | TGI [32]: > 100 µM | TGI [33]: > 100 µM | TGI [34]: > 100 µM | TGI [35]: > 100 µM | TGI [36]: > 100 µM | TGI [37]: > 100 µM | TGI [39]: > 100 µM | TGI [40]: > 100 µM | TGI [41]: > 100 µM | TGI [43]: > 100 µM | TGI [44]: > 100 µM | TGI [45]: > 100 µM | TGI [46]: > 100 µM | TGI [47]: > 100 µM | TGI [48]: > 100 µM | TGI [49]: > 100 µM | TGI [56]: > 100 µM | TGI [50]: > 100 µM | TGI [51]: > 100 µM | TGI [52]: > 100 µM

O=C(/C=C/c1c(O)ccc2ccccc12)c1ccccc1Cl
TGI [1]: > 100 µM | TGI [2]: > 100 µM | TGI [3]: > 100 µM | TGI [53]: > 100 µM | TGI [4]: > 100 µM | TGI [5]: 80.6 µM | TGI [6]: > 100 µM | TGI [7]: > 100 µM | TGI [8]: > 100 µM | TGI [9]: > 100 µM | TGI [10]: > 100 µM | TGI [11]: > 100 µM | TGI [12]: 90 µM | TGI [13]: > 100 µM | TGI [14]: 29.9 µM | TGI [15]: > 100 µM | TGI [54]: > 100 µM | TGI [16]: 46.9 µM | TGI [17]: 28.3 µM | TGI [18]: > 100 µM | TGI [19]: 52.2 µM | TGI [20]: > 100 µM | TGI [21]: 57.1 µM | TGI [22]: 53.3 µM | TGI [55]: 73.9 µM | TGI [23]: > 100 µM | TGI [24]: 62.2 µM | TGI [25]: > 100 µM | TGI [26]: 46.8 µM | TGI [27]: > 100 µM | TGI [28]: 61.3 µM | TGI [29]: > 100 µM | TGI [30]: > 100 µM | TGI [31]: > 100 µM | TGI [57]: 75 µM | TGI [32]: > 100 µM | TGI [33]: > 100 µM | TGI [34]: > 100 µM | TGI [35]: > 100 µM | TGI [36]: 32.3 µM | TGI [37]: 34.9 µM | TGI [38]: > 100 µM | TGI [39]: 41.5 µM | TGI [40]: > 100 µM | TGI [41]: 35.1 µM | TGI [42]: 92.3 µM | TGI [43]: > 100 µM | TGI [44]: > 100 µM | TGI [45]: 31.9 µM | TGI [46]: 86.5 µM | TGI [47]: 50.7 µM | TGI [48]: 53.4 µM | TGI [56]: > 100 µM | TGI [50]: > 100 µM | TGI [51]: 53.8 µM | TGI [52]: > 100 µM
